The source of these data is patent US8912190B2, “Substituted heterocyclic compounds” (Gilead Sciences, Inc., priority 2008, dated 2014).

For series [1], the target named is T1, wild-type human cardiac sodium channel, hNav1.5 (Homo sapiens, UniProt Q14524).
T1 construct: host or cells: HEK293
In words: Late INa screening assay (PatchXpress whole cell patch clamp). The series is classed as cell-based. The note with it: HEK293 hNav1.5; for inhibition at 10 µM: compound at 10 uM, late INa generated with Tefluthrin or ATX II, read-out: Late INa 10 uM (percent block of late INa); for Late INa 1 uM (percent block of late INa): compound at 1 uM. As to the method: The late sodium current (Late INa) and peak sodium current (Peak INa) assays were performed on an automated electrophysiology platform, PatchXpress 7000A (MDS Analytical Technologies, Sunnyvale, Calif.), using the whole cell patch clamp technique to measure currents through the cell membrane of up to 16 cells at a time. The assay used an HEK293 (human embryonic kidney) cell line heterologously expressing the wild-type human cardiac sodium channel, hNav1.5, purchased from Millipore (Billerica, Mass.). No beta subunits were coexpressed with the Na channel alpha subunit. Cells were maintained with standard tissue culture procedures, and stable channel expression was maintained with 400 μg/ml Geneticin in the culture medium. Cells isolated for use on PatchXpress were incubated for 5 minutes in Versene 1× and then for 2 minutes in 0.0125% Trypsin-EDTA (both at 37° C.) to ensure that 80-90% of the cells are single and not part of a cell cluster. Experiments were carried out at 24-27° C.
For both the Late INa and Peak INa assays, series resistance compensation was set to 50% and whole-cell compensation was performed automatically. Currents were low-pass filtered at 10 kHz and digitized at 31.25 kHz. Currents through open sodium channels were automatically recorded and stored in the DataXpress2 database (MDS Analytical Technologies, Sunnyvale, Calif.). Analysis was performed using DataXpress2 analysis software and data are compiled in Excel.
Compound stocks were routinely made in glass vials to 10 mM in dimethyl sulfoxide (DMSO). In some cases, when compounds were not soluble in DMSO, they are made in 100% ethanol. Stocks were sonicated as necessary. The extracellular solution for screening Late INa was composed of: 140 mM NaCl, 4 mM KCl, 1.8 mM CaCl2, 0.75 mM MgCl2, and 5 mM HEPES with pH adjusted to 7.4 using NaOH. The extracellular solution for screening Peak INa was composed of: 20 mM NaCl, 120 mM N-methyl-D glucamine, 4 mM KCl, 1.8 mM CaCl2, 0.75 mM MgCl2, and 5 mM HEPES with pH adjusted to 7.4 using HCl. The intracellular solution used to perfuse the inside of the cells for both the Late INa and Peak INa assays contained: 120 mM CsF, 20 mM CsCl, 5 mM EGTA, 5 mM HEPES and pH adjusted to 7.4 with CsOH. Compounds were diluted in extracellular solution to […] in glass vials and then transferred to glass well plates before robotic addition to the cells. The 0Na extracellular solution used at the end of each experiment for the Late INa and Peak INa assays to measure baseline current contained: 140 mM N-methyl-D-glucamine; 4 mM KCl; 1.8 mM CaCl2; 0.75 mM MgCl2; 5 mM HEPES and pH was adjusted to 7.4 with HCl.
For the Late INa assay, sodium channels were activated every 10 seconds (0.1 Hz) by depolarizing the cell membrane to −20 mV for 250 milliseconds (ms) from a holding potential of −120 mV. In response to a −20 mV voltage step, typical Nav1.5 sodium currents activated rapidly to a peak negative current and then inactivated nearly completely within 3-4 ms.
All compounds were tested to determine their activity in blocking the late sodium current. Late INa current was generated by adding 10 μM Tefluthrin (pyrethroid) to the extracellular solution while recording Na currents. For some experiments, 50 nM ATX II (sea anemone toxin), another late INa activator, was used to generate the late component. Both activators generated late components that are large, and thus block of the late component by compounds could be measured easily. For the purposes of the screening, late INa is defined as the mean current between 225 ms and 250 ms after stepping to −20 mV to activate Na channels. After establishing the whole cell recording configuration, late INa activators were added to each well 4 times over a 16-17 minute period so that the late component of the Na current reached a stable value. Compounds were then added (typically at 10 μM), in the presence of late INa activator, with 3 additions over the course of 7 or 8 minutes. […]

In a further series the target is T2, hERG potassium channel (Homo sapiens, UniProt Q12809).
T2 construct: expressed in transfected cells; host or cells: CHO (Chinese Hamster Ovary)
In words: hERG screening assay (PatchXpress patch clamp, CHO cells). The note with it: CHO cells expressing hERG; for HERG 1 uM (block of hERG current): compound at 1 uM; for HERG 10 uM (block of hERG current): compound at 10 uM. The series is classed as cell-based. As to the method: Compounds were screened to test their activity in blocking the hERG potassium channel. The hERG channel is heterologously expressed in a CHO (Chinese Hamster Ovary) cell line. Cells were maintained with standard tissue culture procedures and stable channel expression was maintained with 500 μg/ml G418 in the culture medium. Cells were harvested for testing on the PatchXpress automated patch clamp with Accumax (Innovative Cell Technologies, San Diego, Calif.) to isolate single cells.
The following solutions were used for electrophysiological recordings. The external solution contained: 2 mM CaCl2; 2 mM MgCl2; 4 mM KCl; 150 mM NaCl; 10 mM Glucose; 10 mM HEPES (pH 7.4 with 1M NaOH, osmolarity). The internal solution contained: 140 mM KCl, 10 mM MgCl2, 6 mM EGTA, 5 mM HEPES, 5 mM ATP (pH adjusted to 7.25 with KOH).
hERG channels were activated when the voltage was stepped to +20 mV from the −80 mV holding potential. During a 5 second step at +20 mV, the channels activated and then largely inactivated, so the currents were relatively small. Upon returning to −50 mV from +20 mV, hERG currents transiently became much larger as inactivation was rapidly removed and then the channel closed. The first step to −50 mV for 300 ms was used as a baseline for measuring the peak amplitude during the step to −50 mV after channel activation. The peak current at −50 mV was measured both under control conditions and after addition of compound.
All compounds were prepared as 10 mM DMSO stocks in glass vials. Stock solutions were mixed by vigorous vortexing and sonication for about 2 minutes at room temperature. For testing, compounds were diluted in glass vials using an intermediate dilution step in pure DMSO and then further diluted to working concentrations in external solution. Dilutions were prepared no longer than 20 minutes before use.
After achieving the whole-cell configuration, cells were monitored for 90 seconds to assess stability and washed with external solution for 66 seconds. The voltage protocol described above was then applied to the cells every 12 seconds and throughout the whole procedure. Only cells with stable recording parameters and meeting specified health criteria were allowed to enter the compound addition procedure.
External solution containing 0.1% DMSO (vehicle) was applied to the cells first to establish the control peak current amplitude. After allowing the current to stabilize for […], 1 μM and then 10 μM test compounds were applied. Each compound concentration was added 4 times and cells were kept in test solution until the effect of the compound reached steady state or for a maximum of 12 minutes. After addition of test compound, a positive control (1 μM Cisapride) was added, and must block >95% of the current for the experiment to be considered valid. Washout in the external solution compartment was performed until the recovery of the current reached steady state. Data was analyzed using DataXpress, Clampfit (Molecular Devices, Inc., Sunnyvale) and Origin 7 (Originlab Corp.)

T2 sequence (Q12809 whole entry): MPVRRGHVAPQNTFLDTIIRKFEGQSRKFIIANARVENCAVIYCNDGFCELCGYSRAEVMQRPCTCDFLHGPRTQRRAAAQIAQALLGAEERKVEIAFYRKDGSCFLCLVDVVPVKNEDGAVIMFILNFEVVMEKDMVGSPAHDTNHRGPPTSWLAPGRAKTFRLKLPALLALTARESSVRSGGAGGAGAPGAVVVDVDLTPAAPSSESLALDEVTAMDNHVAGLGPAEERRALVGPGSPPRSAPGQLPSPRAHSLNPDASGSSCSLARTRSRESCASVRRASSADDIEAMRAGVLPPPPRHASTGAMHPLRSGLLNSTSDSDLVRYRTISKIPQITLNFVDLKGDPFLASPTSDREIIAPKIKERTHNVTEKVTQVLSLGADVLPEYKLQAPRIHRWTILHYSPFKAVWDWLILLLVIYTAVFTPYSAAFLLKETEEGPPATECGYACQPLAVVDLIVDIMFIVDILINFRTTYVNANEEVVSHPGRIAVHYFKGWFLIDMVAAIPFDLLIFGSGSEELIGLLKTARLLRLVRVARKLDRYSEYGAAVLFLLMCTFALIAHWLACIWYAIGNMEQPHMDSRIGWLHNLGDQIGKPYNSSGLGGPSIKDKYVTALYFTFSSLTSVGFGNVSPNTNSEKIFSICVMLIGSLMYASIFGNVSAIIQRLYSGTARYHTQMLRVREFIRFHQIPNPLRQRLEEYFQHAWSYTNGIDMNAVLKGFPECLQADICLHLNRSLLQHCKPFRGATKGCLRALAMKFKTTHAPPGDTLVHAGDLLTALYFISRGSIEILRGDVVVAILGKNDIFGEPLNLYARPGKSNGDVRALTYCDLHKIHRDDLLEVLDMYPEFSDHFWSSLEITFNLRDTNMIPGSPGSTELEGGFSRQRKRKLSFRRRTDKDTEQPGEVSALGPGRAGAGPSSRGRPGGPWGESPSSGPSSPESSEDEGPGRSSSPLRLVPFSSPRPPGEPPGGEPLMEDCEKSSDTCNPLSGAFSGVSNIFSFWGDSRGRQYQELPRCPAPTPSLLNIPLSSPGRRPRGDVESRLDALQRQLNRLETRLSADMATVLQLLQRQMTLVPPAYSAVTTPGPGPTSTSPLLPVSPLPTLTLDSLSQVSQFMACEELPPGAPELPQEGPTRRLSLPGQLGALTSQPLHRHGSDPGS
T1 sequence (Q14524 whole entry): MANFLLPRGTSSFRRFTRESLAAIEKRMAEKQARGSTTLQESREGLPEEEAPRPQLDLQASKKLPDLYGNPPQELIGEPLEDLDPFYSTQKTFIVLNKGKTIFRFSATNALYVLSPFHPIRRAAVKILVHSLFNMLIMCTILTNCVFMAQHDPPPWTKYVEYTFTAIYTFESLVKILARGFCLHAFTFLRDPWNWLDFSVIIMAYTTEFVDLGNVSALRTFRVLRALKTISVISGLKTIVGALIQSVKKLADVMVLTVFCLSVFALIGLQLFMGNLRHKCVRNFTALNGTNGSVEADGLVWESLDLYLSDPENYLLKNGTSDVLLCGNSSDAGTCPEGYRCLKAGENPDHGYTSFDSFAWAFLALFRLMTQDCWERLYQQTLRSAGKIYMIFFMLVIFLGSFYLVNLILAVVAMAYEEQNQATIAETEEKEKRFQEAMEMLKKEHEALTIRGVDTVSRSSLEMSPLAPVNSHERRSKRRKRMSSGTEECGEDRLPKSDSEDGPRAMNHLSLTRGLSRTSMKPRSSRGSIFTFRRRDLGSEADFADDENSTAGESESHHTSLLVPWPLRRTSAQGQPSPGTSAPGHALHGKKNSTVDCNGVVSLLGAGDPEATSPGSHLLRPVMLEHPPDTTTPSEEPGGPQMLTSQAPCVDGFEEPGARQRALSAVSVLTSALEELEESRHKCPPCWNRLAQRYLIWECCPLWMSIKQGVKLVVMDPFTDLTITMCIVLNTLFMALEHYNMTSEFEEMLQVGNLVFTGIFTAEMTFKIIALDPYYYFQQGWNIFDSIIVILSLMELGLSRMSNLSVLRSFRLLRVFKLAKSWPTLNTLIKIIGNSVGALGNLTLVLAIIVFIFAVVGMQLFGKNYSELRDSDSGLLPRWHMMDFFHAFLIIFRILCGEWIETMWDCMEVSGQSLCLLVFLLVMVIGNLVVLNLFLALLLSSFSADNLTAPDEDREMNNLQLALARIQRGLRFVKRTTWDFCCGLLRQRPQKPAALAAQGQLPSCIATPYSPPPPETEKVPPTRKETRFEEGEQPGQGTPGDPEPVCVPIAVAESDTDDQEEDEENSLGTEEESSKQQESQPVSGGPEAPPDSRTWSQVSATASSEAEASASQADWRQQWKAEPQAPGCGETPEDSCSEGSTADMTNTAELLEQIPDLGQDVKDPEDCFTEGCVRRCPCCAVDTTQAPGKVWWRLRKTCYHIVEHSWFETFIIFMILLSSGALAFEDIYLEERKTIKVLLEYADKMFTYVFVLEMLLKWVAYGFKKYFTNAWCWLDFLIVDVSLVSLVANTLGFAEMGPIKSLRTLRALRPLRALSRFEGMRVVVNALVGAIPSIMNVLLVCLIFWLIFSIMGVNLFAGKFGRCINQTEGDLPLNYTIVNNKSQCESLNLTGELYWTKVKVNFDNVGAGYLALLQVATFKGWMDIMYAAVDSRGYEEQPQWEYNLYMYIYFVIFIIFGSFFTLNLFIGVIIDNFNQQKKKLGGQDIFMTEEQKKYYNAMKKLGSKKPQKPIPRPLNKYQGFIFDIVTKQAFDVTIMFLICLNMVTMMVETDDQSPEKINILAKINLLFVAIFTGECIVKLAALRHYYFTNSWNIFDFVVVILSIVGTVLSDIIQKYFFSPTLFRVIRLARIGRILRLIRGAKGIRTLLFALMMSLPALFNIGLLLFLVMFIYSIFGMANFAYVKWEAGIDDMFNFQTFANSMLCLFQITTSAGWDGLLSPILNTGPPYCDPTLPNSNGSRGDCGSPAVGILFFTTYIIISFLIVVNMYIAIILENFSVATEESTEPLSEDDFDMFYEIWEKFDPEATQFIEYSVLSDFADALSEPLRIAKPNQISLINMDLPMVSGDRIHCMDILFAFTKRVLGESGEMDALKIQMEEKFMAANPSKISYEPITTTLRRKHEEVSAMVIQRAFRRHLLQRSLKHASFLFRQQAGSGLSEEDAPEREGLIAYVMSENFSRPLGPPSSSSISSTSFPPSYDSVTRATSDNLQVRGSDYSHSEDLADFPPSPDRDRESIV

With `Cc1nc2cc(-c3cccc(OC(F)(F)F)c3)ccc2n(C)c1=O` [1,3-dimethyl-6-[3-(trifluoromethoxy)phenyl] quinoxalin-2(1H)-one], the inhibition at 10 µM in series [1] came to 70.9%. Further, at hERG potassium channel, the “HERG 1 uM (block of hERG current)” value was determined as 19.5% and the “HERG 10 uM (block of hERG current)” value is on record as 71.5%.
For the molecule `Cc1nc2cc(-c3ccc(OC(F)(F)F)cc3)ccc2n(C)c1=O` [1,3-dimethyl-6-[4-(trifluoromethoxy)phenyl] quinoxalin-2(1H)-one], the inhibition at 10 µM in series [1] is 33.7%.
Take `Cc1nc2ccc(-c3cccc(C(F)(F)F)c3)cc2n(C)c1=O` [1,3-dimethyl-7-[3-(trifluoromethyl)phenyl] quinoxalin-2(1H)-one]: the inhibition at 10 µM in series [1] worked out at 45.5%.
As to `Cc1nc2ccc(-c3ccc(OC(F)(F)F)cc3)cc2n(C)c1=O` [1,3-dimethyl-7-[4-(trifluoromethoxy)phenyl] quinoxalin-2(1H)-one], in series [1], the “Late INa 1 uM (percent block of late INa)” value was 31.0% and the inhibition at 10 µM stood at 61.7%.
In the case of `Cc1nc2ccc(-c3ccc(C(F)(F)F)cc3)cc2n(C)c1=O` [1,3-dimethyl-7-[4-(trifluoromethyl)phenyl] quinoxalin-2(1H)-one], the inhibition at 10 µM in series [1] worked out at 58.3%. For the same molecule, at hERG potassium channel, the “HERG 1 uM (block of hERG current)” value was 25.0% and the “HERG 10 uM (block of hERG current)” value is given as 69.5%.
`CC(C)c1nc2ccc(-c3cccc(OC(F)(F)F)c3)cc2n(C)c1=O` [1-methyl-3-(propan-2-yl)-7-[3-(trifluoromethoxy)phenyl] quinoxalin-2(1H)-one]: the inhibition at 10 µM in series [1] stood at 49.9%.
As for `CC(C)c1nc2ccc(-c3ccc(OC(F)(F)F)cc3)cc2n(C)c1=O` [1-methyl-3-(propan-2-yl)-7-[4-(trifluoromethoxy)phenyl] quinoxalin-2(1H)-one], in series [1], the “Late INa 1 uM (percent block of late INa)” value was determined as 31.3% and the inhibition at 10 µM was 60.3%. At hERG potassium channel, the “HERG 1 uM (block of hERG current)” value worked out at 10.0% and the “HERG 10 uM (block of hERG current)” value was 10.0%.
With `Cn1c(=O)c(C(F)(F)F)nc2cc(-c3cccc(C(F)(F)F)c3)ccc21` [1-methyl-3-(trifluoromethyl)-6-[3-(trifluoromethyl)phenyl] quinoxalin-2(1H)-one], in series [1], the inhibition at 10 µM is 24%.
Turning to `Cn1c(=O)c(C(F)(F)F)nc2cc(-c3cccc(OC(F)(F)F)c3)ccc21` [1-methyl-6-[3-(trifluoromethoxy)phenyl]-3-(trifluoromethyl)quinoxalin-2(1H)-one], in series [1], the inhibition at 10 µM was 31.6%.
Turning to `Cn1c(=O)c(C(F)(F)F)nc2cc(-c3ccc(OC(F)(F)F)cc3)ccc21` [1-methyl-6-[4-(trifluoromethoxy)phenyl]-3-(trifluoromethyl)quinoxalin-2(1H)-one], the inhibition at 10 µM in series [1] worked out at 39.9%. Also, on hERG potassium channel, the “HERG 1 uM (block of hERG current)” value turned out to be 10.0% and the “HERG 10 uM (block of hERG current)” value stood at 47.5%.
With `Cn1c(=O)cnc2ccc(-c3ccc(OC(F)(F)F)cc3)cc21` [1-methyl-7-[4-(trifluoromethoxy)phenyl] quinoxalin-2(1H)-one], the inhibition at 10 µM in series [1] is 51.6%. Also, on hERG potassium channel, the “HERG 1 uM (block of hERG current)” value was 10.00% and the “HERG 10 uM (block of hERG current)” value is reported as 41.5%.
Take `Cn1c(=O)c(C(F)(F)F)nc2ccc(-c3ccc(OC(F)(F)F)cc3)cc21` [1-methyl-7-[4-(trifluoromethoxy)phenyl]-3-(trifluoromethyl)quinoxalin-2(1H)-one]: in series [1], the inhibition at 10 µM was determined as 38.7%. Besides, at hERG potassium channel, the “HERG 1 uM (block of hERG current)” value amounted to 10.00% and the “HERG 10 uM (block of hERG current)” value stood at 39.0%.
`O=C(CO)NCCn1c(=O)c(C(F)(F)F)nc2ccc(-c3ccc(OC(F)(F)F)cc3)cc21` [2-hydroxy-N-(2-{2-oxo-7-[4-(trifiuoromethoxy)phenyl]-3-(trifluoromethyl)quinoxalin-1(2H)-yl}ethyl)acetamide]: the inhibition at 10 µM in series [1] worked out at 19%.
On to `Cn1c(=O)c(C(C)(C)O)nc2ccc(-c3ccc(OC(F)(F)F)cc3)cc21` [3-(2-hydroxypropan-2-yl)-1-methyl-7-[4-(trifluoromethoxy)phenyl] quinoxalin-2(1H)-one], for which the inhibition at 10 µM in series [1] is 54%. For the same molecule, on hERG potassium channel, the “HERG 1 uM (block of hERG current)” value is 19.5% and the “HERG 10 uM (block of hERG current)” value is given as 76.0%.
On to `Cn1c(=O)c(C(C)(C)C)nc2ccc(-c3ccc(OC(F)(F)F)cc3)cc21` [3-tert-butyl-1-methyl-7-[4-(trifluoromethoxy)phenyl] quinoxalin-2(1H)-one], for which the inhibition at 10 µM in series [1] worked out at 44.6%.
In the case of `Cc1nc2cc(-c3ccc(F)c(F)c3)ccc2n(C)c1=O` [6-(3,4-difluorophenyl)-1,3-dimethylquinoxalin-2(1H)-one], the inhibition at 10 µM in series [1] was found to be 14.3%.
On to `Cn1c(=O)cnc2ccc(-c3ccc(F)c(F)c3)cc21` [7-(3,4-difluorophenyl)-1-methylquinoxalin-2(1H)-one], for which, in series [1], the inhibition at 10 µM amounted to 17.5%.
With `CC(C)(C)c1nc2ccc(-c3cccc(OC(F)(F)F)c3)cc2n(CCNC(=O)CO)c1=O` [N-(2-{3-tert-butyl-2-oxo-7-[3-(trifiuoromethoxy)phenyl]quinoxalin-1(2H)-yl}ethyl)-2-hydroxyacetamide], the inhibition at 10 µM in series [1] was 58.1%.
As to `CCOC(=O)c1nc2ccc(-c3cccc(OC(F)(F)F)c3)cc2n(C)c1=O` [ethyl 4-methyl-3-oxo-6-[3-(trifluoromethoxy)phenyl]-3,4-dihydroquinoxaline-2-carboxylate], the inhibition at 10 µM in series [1] amounted to 54.3%.
